From article PMC9267128, “New 2-[(4-Amino-6-N-substituted-1,3,5-triazin-2-yl)methylthio]-N-(imidazolidin-2-ylidene)-4-chloro-5-methylbenzenesulfonamide Derivatives, Design, Synthesis and Anticancer Evaluation” (International Journal of Molecular Sciences, 2022)

Legend:
HCT-116 (colon cancer) = test: MTT cell viability assay, HCT-116; type: cell-based, human; conditions: for IC50: MTT assay, 72 h of incubation; for Selectivity Index (SI) HCT-116: IC50 value toward HaCaT cells/IC50 value toward HCT-116
Procedure, shortened: (§1)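 HCT-116 and HeLa cells in DMEM/10% FBS exposed 72 h to compounds over 1–100 µM. Viability by MTT (0.5 mg/mL, 2 h, 37 °C), formazan dissolved in DMSO and read at 550 nm; mean ± SD of at least three independent experiments.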

MCF-7 (breast cancer) = test: MTT cell viability assay, MCF-7; type: cell-based, human; conditions: for IC50: MTT assay, 72 h of incubation; for Selectivity Index (SI) MCF-7: IC50 value toward HaCaT cells/IC50 value toward MCF-7
Procedure, shortened: (§2)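 Cells in DMEM with 10% FBS, 3 × 10^3 per well, exposed to compounds at 1–100 µM for 72 h at 37 °C. MTT at 0.5 mg/mL for 2 h, formazan dissolved in DMSO and read at 550 nm. Mean ± SD of at least three independent experiments, each in triplicate.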

HeLa (cervical cancer) = test: MTT cell viability assay, HeLa; type: cell-based, human; conditions: for IC50: Homo sapiens, HeLa, MTT assay, 72 h of incubation; for Selectivity Index (SI) HeLa: IC50 value toward HaCaT cells/IC50 value toward HeLa
Procedure, shortened: as §1

[1] = test system: HaCaT (human keratinocyte cell line); test: MTT cell viability assay, non-cancerous HaCaT; type: cell-based; conditions: 72 h of incubation, non-cancerous keratinocytes
Procedure, shortened: as §2

[2] = test system: A2780 (ovarian carcinoma cell line); test: MTT assay, wild-type p53 ovarian cancer cells A2780; type: cell-based; conditions: 72 h of incubation
Protocol: (§3) Thus, the ability of the selected compounds to exert cytotoxic activity toward cell lines harboring mutant p53 was examined. Compounds displaying a high selectivity index (Table 6) were selected for the analysis of their activity toward ovarian and breast cancer cells with wild-type p53 (A2780, MCF-7) and mutant p53 (SKOV-3, T47D).
(§4) Cell viability was examined using the MTT [3-(4,5-dimethylthiazol-2-yl)-2,5-diphenyltetrazolium bromide] assay. Cells were seeded in 96-well plates at a density of 3 × 10^3 cells/well and treated for 72 h with the tested compounds in the concentration range of 1–100 µM. Then, MTT (0.5 mg/mL) was added to the medium and cells were further incubated for 2 h at 37 °C. In the next stage, cells were lysed with DMSO and the absorbance of the formazan solution was measured at 550 nm with a plate reader (1420 multilabel counter, Victor, Jügesheim, Germany). The experiment was performed in triplicate. Values are expressed as the mean ± SD of at least three independent experiments. Cisplatin was used as a positive control.
(§5) Compounds 48, 62, 134, 138 and 140 were further examined toward MCF7 (breast cancer cell line, ATCC, HTB-22), T47D (breast cancer cell line, DSMZ ACC 739), A2780 (ovarian carcinoma cell line, ECACC, 93112519), and SKOV3 (ovarian carcinoma cell line, ATCC, HTB-77) cells. Cells were grown in Dulbecco’s Modified Eagle Medium (DMEM) supplemented with 10% fetal bovine serum (Thermo Fisher Scientific).

[3] = test system: SKOV3 (ovarian carcinoma cell line); test: MTT assay, mutant p53 ovarian cancer cells SKOV-3; type: cell-based; conditions: 72 h of incubation
Protocol: as §3, §4, §5

[4] = test system: MCF7 (breast cancer cell line, ATCC, HTB-22); test: MTT assay, wild-type p53 breast cancer cells MCF-7 (Table 11); type: cell-based, human; conditions: 72 h of incubation, wild-type p53, second determination
Protocol: as §3, §4, §5

[5] = test system: T47D (breast cancer cell line); test: MTT assay, mutant p53 breast cancer cells T47D; type: cell-based; conditions: 72 h of incubation
Protocol: as §3, §4, §5

| Compound | IC50 (HCT-116 (colon cancer); Homo sapiens, HCT-116, 72 h) [µM] | IC50 (MCF-7 (breast cancer); Homo sapiens, MCF7, 72 h) [µM] | IC50 (HeLa (cervical cancer)) [µM] | IC50 ([1]; Homo sapiens, HaCaT, 72 h) [µM] | further results |
| --- | --- | --- | --- | --- | --- |
| Cc1cc(S(=O)(=O)N=C2NCCN2Cc2ccc(C(F)(F)F)cc2)c(SCc2nc(N)nc(N3CCN(c4ccccc4F)CC3)n2)cc1Cl [Compound 133] | 8 ± 0.3 | 16 ± 0.5 | 14 ± 1 | 25 ± 1 | – |
| Cc1cc(S(=O)(=O)N=C2NCCN2Cc2ccc(C(F)(F)F)cc2)c(SCc2nc(N)nc(N3CCN(c4cccc(C(F)(F)F)c4)CC3)n2)cc1Cl [Compound 135] | 5 ± 0.2 | 6.5 ± 0.3 | 7 ± 0.2 | 19 ± 1 | – |
| Cc1cc(S(=O)(=O)N=C2NCCN2Cc2ccc(C(F)(F)F)cc2)c(SCc2nc(N)nc(N3CCN(c4ccc(Cl)cc4)CC3)n2)cc1Cl [Compound 136] | 5 ± 0.1 | 6 ± 0.3 | 10 ± 0.4 | 21 ± 1 | – |
| Cc1cc(S(=O)(=O)N=C2NCCN2Cc2ccc(C(F)(F)F)cc2)c(SCc2nc(N)nc(N3CCN(c4cccc(Cl)c4)CC3)n2)cc1Cl [Compound 137] | 6 ± 0.2 | 7 ± 0.4 | 12 ± 0.6 | 21 ± 1 | – |
| COc1ccc(N2CCN(c3nc(N)nc(CSc4cc(Cl)c(C)cc4S(=O)(=O)N=C4NCCN4Cc4ccc(C(F)(F)F)cc4)n3)CC2)cc1 [Compound 139] | 6 ± 0.1 | 13 ± 1 | 12 ± 1 | 24 ± 1 | – |
| Cc1cc(S(=O)(=O)N=C2NCCN2Cc2ccc(C(F)(F)F)cc2)c(SCc2nc(N)nc(N3CCN(C(c4ccccc4)c4ccccc4)CC3)n2)cc1Cl [Compound 141] | 7.5 ± 0.2 | 9.5 ± 0.5 | 45 ± 2 | 180 ± 9 | – |
| Cc1cc(S(=O)(=O)N=C2NCCN2Cc2ccc(C(F)(F)F)cc2)c(SCc2nc(N)nc(N3CCC(Cc4ccccc4)CC3)n2)cc1Cl [Compound 142] | 4.6 ± 0.1 | 6.5 ± 0.3 | 14 ± 0.2 | 29 ± 1 | – |
| Cc1cc(S(=O)(=O)N=C2NCCN2Cc2ccc(C(F)(F)F)cc2)c(SCc2nc(N)nc(N3CC=C(c4ccc(F)cc4)CC3)n2)cc1Cl [Compound 143] | 4.6 ± 0.1 | 6 ± 0.3 | 7 ± 0.4 | 19 ± 1 | – |
| Cc1cc(S(=O)(=O)N=C2NCCN2Cc2cc(C(F)(F)F)cc(C(F)(F)F)c2)c(SCc2nc(N)nc(N3CCc4ccccc43)n2)cc1Cl [Compound 144] | 8 ± 0.5 | 8 ± 0.2 | 13 ± 0.2 | 27 ± 1 | – |
| Cc1cc(S(=O)(=O)N=C2NCCN2Cc2cc(C(F)(F)F)cc(C(F)(F)F)c2)c(SCc2nc(N)nc(N3CCCc4ccccc43)n2)cc1Cl [Compound 145] | 13 ± 0.5 | 13 ± 0.8 | 16.5 ± 1 | 36 ± 1 | – |
| Cc1cc(S(=O)(=O)N=C2NCCN2Cc2cc(C(F)(F)F)cc(C(F)(F)F)c2)c(SCc2nc(N)nc(Nc3ccccc3)n2)cc1Cl [Compound 146] | 11.5 ± 0.5 | 12.5 ± 0.6 | 15 ± 1 | 32 ± 1 | – |
| Cc1cc(S(=O)(=O)N=C2NCCN2Cc2cc(C(F)(F)F)cc(C(F)(F)F)c2)c(SCc2nc(N)nc(Nc3ccc(C(F)(F)F)cc3)n2)cc1Cl [Compound 147] | 6.5 ± 0.3 | 8 ± 0.2 | 15 ± 1 | 28 ± 1 | – |
| Cc1cc(S(=O)(=O)N=C2NCCN2Cc2cc(C(F)(F)F)cc(C(F)(F)F)c2)c(SCc2nc(N)nc(NCc3ccccc3)n2)cc1Cl [Compound 148] | 9.5 ± 0.2 | 8.5 ± 0.5 | 15 ± 1 | 29 ± 1 | – |
| Cc1cc(S(=O)(=O)N=C2NCCN2Cc2cc(C(F)(F)F)cc(C(F)(F)F)c2)c(SCc2nc(N)nc(N(C)c3ccc(Cl)cc3)n2)cc1Cl [Compound 149] | 11.5 ± 0.6 | 11 ± 0.5 | 18 ± 1 | 33 ± 1 | – |
| Cc1cc(S(=O)(=O)N=C2NCCN2Cc2cc(C(F)(F)F)cc(C(F)(F)F)c2)c(SCc2nc(N)nc(N3CCN(c4ccccc4)CC3)n2)cc1Cl [Compound 150] | < 6 | 4.5 ± 0.2 | 11 ± 0.3 | 23 ± 1 | Selectivity Index (SI) HCT-116 (HCT-116 (colon cancer)): 6.4; IC50 (HCT-116 (colon cancer)): 3.6 ± 0.2 µM; Selectivity Index (SI) MCF-7 (MCF-7 (breast cancer)): 5.1; Selectivity Index (SI) HeLa (HeLa (cervical cancer)): 2.0 |
| Cc1cc(S(=O)(=O)N=C2NCCN2Cc2cc(C(F)(F)F)cc(C(F)(F)F)c2)c(SCc2nc(N)nc(N3CCN(c4ccc(F)cc4)CC3)n2)cc1Cl [Compound 151] | 6 ± 0.1 | 6 ± 0.1 | 15 ± 1 | 28 ± 1 | – |
| Cc1cc(S(=O)(=O)N=C2NCCN2Cc2cc(C(F)(F)F)cc(C(F)(F)F)c2)c(SCc2nc(N)nc(N3CCN(c4ccccc4F)CC3)n2)cc1Cl [Compound 152] | 6.5 ± 0.3 | 6.5 ± 0.3 | 15.5 ± 1 | 29 ± 1 | – |
| Cc1cc(S(=O)(=O)N=C2NCCN2Cc2cc(C(F)(F)F)cc(C(F)(F)F)c2)c(SCc2nc(N)nc(N3CCN(c4cccc(C(F)(F)F)c4)CC3)n2)cc1Cl [Compound 153] | 6 ± 0.3 | 8 ± 0.2 | 9 ± 0.5 | 19 ± 0.5 | – |
| Cc1cc(S(=O)(=O)N=C2NCCN2Cc2cc(C(F)(F)F)cc(C(F)(F)F)c2)c(SCc2nc(N)nc(N3CCN(c4ccc(Cl)cc4)CC3)n2)cc1Cl [Compound 154] | 5 ± 0.1 | 6.5 ± 0.2 | 12 ± 1 | 26 ± 1 | – |
| Cc1cc(S(=O)(=O)N=C2NCCN2Cc2cc(C(F)(F)F)cc(C(F)(F)F)c2)c(SCc2nc(N)nc(N3CCN(c4ccc(Cl)c(Cl)c4)CC3)n2)cc1Cl [Compound 155] | 5 ± 0.1 | 6 ± 0.1 | 10 ± 0.1 | 19 ± 1 | – |
| Cc1cc(S(=O)(=O)N=C2NCCN2Cc2cc(C(F)(F)F)cc(C(F)(F)F)c2)c(SCc2nc(N)nc(N3CCN(Cc4ccccc4)CC3)n2)cc1Cl [Compound 156] | 4.8 ± 0.1 | 7.5 ± 0.4 | 5.5 ± 0.2 | 17 ± 1 | – |
| Cc1cc(S(=O)(=O)N=C2NCCN2Cc2cc(C(F)(F)F)cc(C(F)(F)F)c2)c(SCc2nc(N)nc(N3CCC(Cc4ccccc4)CC3)n2)cc1Cl [Compound 157] | 5 ± 0.1 | 6 ± 0.3 | 13 ± 0.5 | 23 ± 1 | Selectivity Index (SI) HCT-116 (HCT-116 (colon cancer)): 4.6; Selectivity Index (SI) MCF-7 (MCF-7 (breast cancer)): 3.8; Selectivity Index (SI) HeLa (HeLa (cervical cancer)): 1.7 |
| Cc1cc(S(=O)(=O)N=C2NCCCN2Cc2ccc(C(F)(F)F)cc2)c(SCc2nc(N)nc(N3CCCc4ccccc43)n2)cc1Cl [Compound 158] | 5 ± 0.3 | 8 ± 0.4 | 6 ± 0.3 | 17 ± 1 | – |
| Cc1cc(S(=O)(=O)N=C2NCCCN2Cc2ccc(C(F)(F)F)cc2)c(SCc2nc(N)nc(N3CCN(c4ccccc4)CC3)n2)cc1Cl [Compound 159] | 9 ± 0.5 | 10 ± 0.3 | 15.5 ± 0.5 | 29 ± 1 | – |
| Cc1cc(S(=O)(=O)N=C2NCCCN2Cc2ccc(C(F)(F)F)cc2)c(SCc2nc(N)nc(N3CCN(c4cccc(C(F)(F)F)c4)CC3)n2)cc1Cl [Compound 160] | 10.5 ± 0.4 | 12 ± 0.5 | 8.5 ± 0.3 | 23 ± 1 | – |
| Cc1cc(S(=O)(=O)N=C2NCCCN2Cc2ccc(C(F)(F)F)cc2)c(SCc2nc(N)nc(N3CCN(c4ccc(Cl)cc4)CC3)n2)cc1Cl [Compound 161] | 6.5 ± 0.1 | 6.5 ± 0.2 | 14 ± 0.5 | 27 ± 1 | – |
| Cc1cc(S(=O)(=O)N=C2NCCCN2Cc2ccc(C(F)(F)F)cc2)c(SCc2nc(N)nc(N3CCN(Cc4ccccc4)CC3)n2)cc1Cl [Compound 162] | < 6 | 6 ± 0.2 | 12.5 ± 0.5 | 25 ± 0.7 | Selectivity Index (SI) HCT-116 (HCT-116 (colon cancer)): 4.5; IC50 (HCT-116 (colon cancer)): 5.5 ± 0.3 µM; Selectivity Index (SI) MCF-7 (MCF-7 (breast cancer)): 4.1; Selectivity Index (SI) HeLa (HeLa (cervical cancer)): 2.0 |
| N.N.[Cl][Pt][Cl] [cisplatin, reference compound] | – | – | – | – | IC50 (MCF-7 (breast cancer)): 3 ± 0.1 µM; IC50 [1]: 7.7 ± 0.2 µM; IC50 [2]: 1.4 ± 0.1 µM; IC50 [3]: 71 ± 0.1 µM; IC50 [4]: 3 ± 0.1 µM; IC50 [5]: 3.1 ± 0.1 µM |
